pKd: −log10 of the molar value. Where “and” joins values, the source holds several entries; their conditions need not be identical. Equal entries are not always repeated. Entries after “also recorded” stand apart in the source; their conditions may differ.
How the values were obtained:
[1] = target: Prodan-G-actin (Oryctolagus cuniculus, UniProt P68135); experiment: Kinetic analysis of binding to Prodan-G-actin (stopped-flow and slow phase); parameters: F-actin is purified from rabbit skeletal muscle using a standard protocol; Prodan (Acrylodan) fluorophore, chemical label on the thiol of Cys374; from tissue; host or cells: rabbit skeletal muscle; species or system rabbit
Protocol: FIG. 3: Kinetic analyses of KabC binding of Prodan labeled G-actin. (A-B). Prodan-actin (0.1 μM) and KabC, loaded into separated syringes, were rapidly mixed within ˜1 msec dead-time. The concentrations of KabC were 0.0 μM (a), 1.0 μM (b), 1.5 μM (c), 2.0 μM (d) and 2.5 μM (data not shown), respectively. The decreases in emission intensity were well fitted with single exponential functions to determine the observed rate, kobs. The observed rates are plotted as a function of the [KabC] in panel (B).
Kinetic analysis of binding reactions. The kinetics of the KabC interaction with Prodan-actin is determined, using an Applied Photophysics SX.18MV Stopped-flow spectrometer, by following the decrease in the emission intensity of Prodan-actin at 25° C. Prodan was excited at 385 nm and emission was collected with a 470 nm (+/−5 nm) band-pass filter. In all cases the decrease in emission intensity was best fit with a single exponential function, which was then used to determine the observed rate, kobs. Kinetic constants of on rate (kon) and off rate (koff) were calculated according to the following equation: kobs=kon[KabC]+koff. The kinetics of the slower binding step observed in the interaction of KabC with Prodan-G-actin interaction is measured by measuring the ratio of fluorescence signals at 465 nm and 530 nm. The decay of this ratio is fit using a single exponential rate.

[2] = target: T1, F-actin (Oryctolagus cuniculus, UniProt P68135); experiment: KabC binding to and severing of Prodan-F-actin (fluorescence spectra, SDS-PAGE of supernatant and pellet); type: biochemical, rabbit
T1 construct: F-actin is purified from rabbit skeletal muscle using a standard protocol; Prodan (Acrylodan) fluorophore on Cys374 (in the fluorescence spectra); from tissue; host or cells: rabbit skeletal muscle
Protocol: FIG. 6: Fluorescence emission spectra of 5 μM Prodan-F-actin in the absence (a), and after selected times following the addition of KabC to 5 μM: (b), immediately after the addition of KabC (the emission spectrum is acquired in 30 seconds); (c), 15 min; (d), 39 min; (e), The spectrum of an equivalent concentration of the KabC-Prodan-G-actin complex. Inset: SDS-PAGE Analysis of KabC binding to F-actin. 100 μL of F-actin (10 μM) in […] was treated each with KabC (a: 0; b: 1; c: 4; d: 10 μM) for 30 min and airfuged at 120,000 g for another 30 min. Supernatant (S) and pellet (P) of each sample was run on SDS-PAGE.
F-actin: F-actin is purified from rabbit skeletal muscle using a standard protocol developed in the PI's laboratory (Marriott et al, 1988). The purity and activity of actin is analyzed using SDS-PAGE, polymerization assays and a motility assay (Heidecker et al, 1995).
The fluorescence emission of Prodan-F-actin is also immediately quenched upon adding KabC ([…]). However, a particularly attractive feature of the Prodan-actin probe is that the average energy of the fluorescence emission changes appreciably following the binding of ABPs, macrolides and in the transition of F-actin to G-actin. Careful analysis of the spectrum can yield information on the relative amounts of up to 4 different states in equilibrium (Marriott et al, 1988). This feature is useful to help understand how KabC binds to Prodan-F-actin. The addition of an equimolar amount of KabC to Prodan-F-actin leads to an immediate decrease in the fluorescence quantum yield, which is followed by a far slower red-shift in the average energy of the emission spectrum over time. […] In this experiment, the monomeric actin (supernatant, S) and F-actin (pellet, P) fractions of KabC treated F-actin are separated after a 60-minute incubation by high-speed centrifugation (120,000 g) and quantified by Coumassie staining of the acrylamide gel. […]

[3] = tested on: NBT-II cells; experiment: Effect of macrolides on NBT-II cells (live cell microscopy); type: cell-based, rat
Protocol: FIG. 7: Effect of KabC on NBT-II cells. NBT-II cells are imaged after 16 hours of drug treatment. KabC concentrations: (A), Control; (B), 10 nM; (C), 100 nM and (D), 1000 nM.
Cell Culture: Rat bladder NBT-II carcinoma cells and mouse NIH 3T3 fibroblast cells are maintained and treated with external drugs as described in Choidas et al (1998).
Live cell microscopy: A multi-model microscope workstation was used to image phase contrast and fluorescence images of living cells (Choidas et al, 1998). Cells are maintained at 37° in a Hepes based culture medium in a Bioptechs cell perfusion chamber (Choidas et al, 1998).

Substance: Kabiramide C [KabC]
- binding steps in reaction with G-actin [1]: two-step reaction
- koff ([1]; Prodan-actin 0.1 μM, Y-intercept of kobs vs [KabC]): 5.6 s⁻¹
- kon ([1]; Prodan-actin 0.1 μM, slope of kobs vs [KabC]): 5.45e+07 M⁻¹ s⁻¹
- rate of second, slower phase of G-actin binding ([1]; decrease at 465 nm relative to red edge): 0.008 s⁻¹ and 0.005 s⁻¹
- rate of primary binding event ([1]; fluorescence quenching of Prodan-actin): 30 s⁻¹
- pKd ([1]; koff/kon, read-out: dissociation constant (Kd) from kinetic constants): ~7.00
- F-actin severing [2]: single and slow severing event
- actin fraction by SDS-PAGE after centrifugation ([2]; F-Actin:KabC 10:1 and 5:2): a significant fraction of the total actin exists as F-actin
- depolymerization of F-actin ([2]; sub-stoichiometric KabC (1/10th)): not depolymerized
- concentration at which cytotoxic effects are seen [3]: > 10 nM
- cytotoxic activity on NBT II epithelia cells [3]: concentration dependent cytotoxic activity
- cell phenotype ([3]; 10 nM, >12 hours): fail to complete cytokinesis and are immotile
- cell phenotype ([3]; 100 nM): the cells lose control of contractile functions and have enlarged vesicles
- cell phenotype ([3]; 1 μM or higher): complete breakdown of their actin cytoskeleton and die within a few hours
- time to cell death ([3]; 1000 nM): 8˜12 hours
- cell phenotype ([3]; 10˜100 nM): an increase in the number of blebs, a breakdown in the adherens junction and a cytokinesis defect; also recorded: cytoskeleton-linked phenotypes

— US7301020B2, “Macrolide analogs and methods for identifying same” (priority 2003, dated 2007)
